Data reported in the supplement of paper PMC10307832.

What was measured:
Assay in all cases: relative viability (nuclei count vs DMSO), 5 days (fraction); higher = more cells survive
[1] = compound: Nc1ccn([C@@H]2O[C@H](CO)[C@@H](O)C2(F)F)c(=O)n1 [Gemcitabine] + CC(=O)c1c(C)c2cnc(Nc3ccc(N4CCNCC4)cn3)nc2n(C2CCCC2)c1=O [Palbociclib] (partner 0.5 µM)
Summary of the method: (§1)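 Lung cancer cell lines were seeded in 1536-well plates and dosed by pin tool the next day, with either a single drug or a fixed anchor-drug dose combined with five library-drug doses (not always all listed) spaced in √10 steps. Five days later, one step fixed the cells and stained their nuclei (final 0.05% Triton X-100, 1% formaldehyde, 1 ug/ml Hoechst), and nuclei were counted on 4× images. Relative viability is the nuclei count in treated wells divided by the count in vehicle wells, and each value is the median of duplicate plates.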

[2] = compound: Nc1ccn([C@@H]2O[C@H](CO)[C@@H](O)C2(F)F)c(=O)n1 [Gemcitabine] + N=C(N)NC(=N)NCCc1ccccc1 [Phenformin] (partner 250 µM)
Summary of the method: as §1

[3] = compound: Nc1ccn([C@@H]2O[C@H](CO)[C@@H](O)C2(F)F)c(=O)n1 [Gemcitabine] + Nc1ncn([C@H]2C[C@H](O)[C@@H](CO)O2)c(=O)n1 [Decitabine] (partner 2 µM)
Summary of the method: as §1

[4] = compound: Nc1ccn([C@@H]2O[C@H](CO)[C@@H](O)C2(F)F)c(=O)n1 [Gemcitabine] + CS(=O)(=O)N1CCN(Cc2cc3nc(-c4cccc5[nH]ncc45)nc(N4CCOCC4)c3s2)CC1 [Pictilisib] (partner 1 µM)
Summary of the method: as §1

| Cell Line | relative viability ([1]; first compound 0.001 µM) | relative viability ([1]; first compound 0.003162 µM) | relative viability ([1]; first compound 0.01 µM) | relative viability ([1]; first compound 0.03162 µM) | relative viability ([1]; first compound 0.1 µM) | relative viability ([2]; first compound 0.001 µM) | relative viability ([2]; first compound 0.003162 µM) | relative viability ([2]; first compound 0.01 µM) | relative viability ([2]; first compound 0.03162 µM) | relative viability ([2]; first compound 0.1 µM) | relative viability ([3]; first compound 0.001 µM) | relative viability ([3]; first compound 0.003162 µM) | relative viability ([3]; first compound 0.01 µM) | relative viability ([3]; first compound 0.03162 µM) | relative viability ([3]; first compound 0.1 µM) | relative viability ([4]; first compound 0.001 µM) | relative viability ([4]; first compound 0.003162 µM) | relative viability ([4]; first compound 0.01 µM) | relative viability ([4]; first compound 0.03162 µM) | relative viability ([4]; first compound 0.1 µM) |
| --- | --- | --- | --- | --- | --- | --- | --- | --- | --- | --- | --- | --- | --- | --- | --- | --- | --- | --- | --- | --- |
| H3255 | 0.348 | 0.347 | 0.286 | 0.285 | 0.264 | 0.352 | 0.266 | 0.31 | 0.368 | 0.302 | 0.884 | 0.374 | 0.42 | 0.238 | 0.15 | 0.524 | 0.299 | 0.334 | 0.194 | 0.137 |
| EPLC-272H | 0.384 | 0.323 | 0.275 | 0.244 | 0.21 | 0.348 | 0.324 | 0.174 | 0.158 | 0.0709 | 0.389 | 0.353 | 0.305 | 0.224 | 0.0962 | 0.286 | 0.115 | 0.304 | 0.232 | 0.143 |
| PC-3 [JPC-3] | 0.512 | 0.472 | 0.499 | 0.471 | 0.443 | 0.503 | 0.446 | 0.365 | 0.325 | 0.287 | 0.935 | 0.573 | 0.602 | 0.524 | 0.465 | 0.847 | 0.61 | 0.514 | 0.33 | 0.286 |
| NCI-H1793 | 0.297 | 0.3 | 0.267 | 0.167 | 0.145 | 0.38 | 0.324 | 0.223 | 0.166 | 0.13 | 0.512 | 0.433 | 0.271 | 0.156 | 0.162 | 0.262 | 0.282 | 0.291 | 0.186 | 0.176 |
| EKVX | 0.412 | 0.284 | 0.237 | 0.168 | 0.154 | 0.233 | 0.194 | 0.119 | 0.132 | 0.109 | 0.3 | 0.256 | 0.18 | 0.193 | 0.14 | 0.424 | 0.336 | 0.226 | 0.153 | 0.108 |
| ChaGo-K-1 | 0.99 | 0.803 | 0.31 | 0.186 | 0.167 | 0.444 | 0.378 | 0.204 | 0.17 | 0.159 | 0.517 | 0.467 | 0.337 | 0.205 | 0.187 | 0.664 | 0.388 | 0.363 | 0.198 | 0.239 |
| NCI-H23 | 0.383 | 0.245 | 0.158 | 0.156 | 0.139 | 0.71 | 0.491 | 0.144 | 0.136 | 0.135 | 0.284 | 0.237 | 0.155 | 0.157 | 0.136 | 0.446 | 0.328 | 0.143 | 0.146 | 0.104 |
| EMC-BAC-2 | 0.529 | 0.515 | 0.46 | 0.256 | 0.25 | 0.566 | 0.525 | 0.425 | 0.205 | 0.204 | 0.965 | 0.936 | 0.726 | 0.356 | 0.262 | 0.615 | 0.58 | 0.402 | 0.196 | 0.184 |
| LOU-NH91 | 0.524 | 0.522 | 0.478 | 0.474 | 0.412 | 0.723 | 0.498 | 0.442 | 0.225 | 0.21 | 0.801 | 0.732 | 0.756 | 0.562 | 0.41 | 0.496 | 0.475 | 0.486 | 0.389 | 0.34 |
| LU99A | 0.412 | 0.43 | 0.409 | 0.404 | 0.421 | 0.857 | 0.949 | 0.805 | 0.801 | 0.789 | 0.789 | 1.03 | 0.816 | 0.985 | 0.836 | 0.33 | 0.31 | 0.313 | 0.369 | 0.333 |
| NCI-H1395 | 0.614 | 0.627 | 0.445 | 0.352 | 0.347 | 0.403 | 0.417 | 0.321 | 0.315 | 0.318 | 0.736 | 0.592 | 0.47 | 0.422 | 0.365 | 0.544 | 0.666 | 0.413 | 0.351 | 0.347 |
| NCI-H460 | 0.129 | 0.212 | 0.0945 | 0.0273 | 0.0115 | 0.589 | 0.565 | 0.0724 | 0.0156 | 0.0098 | 0.475 | 0.451 | 0.417 | 0.0447 | 0.0204 | 0.37 | 0.328 | 0.0742 | 0.0745 | 0.0388 |
| 201T | 0.341 | 0.363 | 0.317 | 0.359 | 0.323 | 0.43 | 0.455 | 0.427 | 0.334 | 0.263 | 0.83 | 0.87 | 0.906 | 0.776 | 0.446 | 0.692 | 0.71 | 0.686 | 0.496 | 0.321 |
| NCI-H1944 | 0.357 | 0.286 | 0.268 | 0.229 | 0.171 | 0.225 | 0.193 | 0.169 | 0.161 | 0.132 | 0.44 | 0.409 | 0.443 | 0.381 | 0.193 | 0.352 | 0.373 | 0.355 | 0.241 | 0.22 |
| NCI-H2405 | 0.527 | 0.483 | 0.422 | 0.203 | 0.188 | 0.405 | 0.26 | 0.247 | 0.192 | 0.173 | 0.735 | 0.676 | 0.427 | 0.31 | 0.226 | 0.432 | 0.255 | 0.272 | 0.2 | 0.122 |
| NCI-H1703 |  |  |  |  |  |  |  |  |  |  |  |  |  |  |  | 0.208 | 0.227 | 0.158 | 0.154 | 0.132 |
| NCI-H1755 | 0.431 | 0.425 | 0.401 | 0.414 | 0.421 | 0.582 | 0.651 | 0.482 | 0.4 | 0.336 | 0.708 | 0.667 | 0.65 | 0.568 | 0.469 | 0.417 | 0.45 | 0.355 | 0.249 | 0.188 |
